Assay results from ChEMBL document CHEMBL1139389, “Discovery of the Poly(ADP-ribose) polymerase (PARP) inhibitor 2-[(R)-2-methylpyrrolidin-2-yl]-1H-benzimidazole-4-carboxamide (ABT-888) for the treatment of cancer” (J Med Chem, 2009).

Columns and labels:
[1] = Volume of distribution at steady state in Sprague-Dawley rat at 5 mg/kg; type: ADME, organism-based; parameters: dose 5 mg/kg; details: in vivo, read-out: Vdss
[2] = Clearance in Sprague-Dawley rat at 5 mg/kg; type: ADME, organism-based; parameters: dose 5 mg/kg; details: in vivo
[3] = Oral bioavailability in Beagle dog at 2.5 mg/kg; type: ADME, organism-based, Canis lupus familiaris; details: in vivo
[4] = Half life in Beagle dog at 2.5 mg/kg, iv; type: ADME, organism-based, Canis lupus familiaris; parameters: dose 2.5 mg/kg, route intravenous; details: in vivo
[5] = AUC in Beagle dog at 2.5 mg/kg, po; type: ADME, organism-based, Canis lupus familiaris; parameters: dose 2.5 mg/kg, route oral; details: plasma
[6] = Cmax in Beagle dog at 2.5 mg/kg, po; type: ADME, organism-based, Canis lupus familiaris; parameters: dose 2.5 mg/kg, route oral; details: in vivo
[7] = Volume of distribution at steady state in Beagle dog at 2.5 mg/kg; type: ADME, organism-based, Canis lupus familiaris; parameters: dose 2.5 mg/kg; details: in vivo, read-out: Vdss
[8] = Clearance in Beagle dog at 2.5 mg/kg; type: ADME, organism-based, Canis lupus familiaris; parameters: dose 2.5 mg/kg; details: in vivo
[9] = Oral bioavailability in cynomolgus monkey at 2.5 mg/kg; type: ADME, organism-based, Macaca fascicularis; details: in vivo
[10] = Half life in cynomolgus monkey at 2.5 mg/kg, iv; type: ADME, organism-based, Macaca fascicularis; parameters: dose 2.5 mg/kg, route intravenous; details: in vivo
[11] = AUC in cynomolgus monkey at 2.5 mg/kg, po; type: ADME, organism-based, Macaca fascicularis; parameters: dose 2.5 mg/kg, route oral; details: plasma
[12] = Cmax in cynomolgus monkey at 2.5 mg/kg, po; type: ADME, organism-based, Macaca fascicularis; parameters: dose 2.5 mg/kg, route oral; details: in vivo
[13] = Volume of distribution at steady state in cynomolgus monkey at 2.5 mg/kg; type: ADME, organism-based, Macaca fascicularis; parameters: dose 2.5 mg/kg; details: in vivo, read-out: Vdss
[14] = Clearance in cynomolgus monkey at 2.5 mg/kg; type: ADME, organism-based, Macaca fascicularis; parameters: dose 2.5 mg/kg; details: in vivo
[15] = Water solubility of compound at physiological pH; type: physicochemical
[16] = target: T1, Cytochrome P450 1A2 (Homo sapiens, UniProt P05177); test: Inhibition of CYP1A2 in human liver microsomes; type: ADME, Microsome
T1 sequence (P05177 whole entry): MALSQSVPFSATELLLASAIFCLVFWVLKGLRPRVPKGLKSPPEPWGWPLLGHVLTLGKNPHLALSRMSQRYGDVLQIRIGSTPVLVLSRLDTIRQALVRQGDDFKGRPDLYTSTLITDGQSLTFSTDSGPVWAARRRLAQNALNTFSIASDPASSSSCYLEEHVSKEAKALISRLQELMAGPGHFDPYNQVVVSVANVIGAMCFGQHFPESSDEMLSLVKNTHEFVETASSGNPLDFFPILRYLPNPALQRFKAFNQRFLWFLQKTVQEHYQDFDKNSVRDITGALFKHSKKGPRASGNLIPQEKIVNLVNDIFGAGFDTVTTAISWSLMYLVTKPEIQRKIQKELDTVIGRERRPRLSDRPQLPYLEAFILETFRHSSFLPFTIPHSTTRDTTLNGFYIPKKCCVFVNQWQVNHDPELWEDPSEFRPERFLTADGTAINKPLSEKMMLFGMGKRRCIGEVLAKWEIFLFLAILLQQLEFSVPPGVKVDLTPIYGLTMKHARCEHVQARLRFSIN

[17] = target: T2, Cytochrome P450 2A6 (Homo sapiens, UniProt P11509); test: Inhibition of CYP2A6 in human liver microsomes; type: ADME, Microsome
T2 sequence (P11509 whole entry): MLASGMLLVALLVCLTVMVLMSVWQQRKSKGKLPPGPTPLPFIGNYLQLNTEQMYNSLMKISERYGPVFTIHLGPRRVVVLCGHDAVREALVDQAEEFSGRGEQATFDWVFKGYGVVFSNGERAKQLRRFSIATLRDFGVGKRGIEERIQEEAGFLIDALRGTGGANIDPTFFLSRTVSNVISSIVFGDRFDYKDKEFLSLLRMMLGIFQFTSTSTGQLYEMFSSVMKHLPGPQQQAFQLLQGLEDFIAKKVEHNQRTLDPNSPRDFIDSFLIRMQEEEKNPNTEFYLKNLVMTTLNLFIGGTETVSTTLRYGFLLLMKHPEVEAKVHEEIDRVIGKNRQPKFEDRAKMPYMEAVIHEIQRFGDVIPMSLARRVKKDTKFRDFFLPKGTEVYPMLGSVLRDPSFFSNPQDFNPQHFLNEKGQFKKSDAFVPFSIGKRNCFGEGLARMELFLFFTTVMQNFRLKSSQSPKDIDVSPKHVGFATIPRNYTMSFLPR

[18] = target: Cytochrome P450 2D6 (Homo sapiens, UniProt P10635); test: Inhibition of CYP2D6 in human liver microsomes; type: ADME, Microsome
[19] = target: Cytochrome P450 2C9 (Homo sapiens, UniProt P11712); test: Inhibition of CYP2C9 in human liver microsomes; type: ADME, Microsome
[20] = target: Cytochrome P450 2C19 (Homo sapiens, UniProt P33261); test: Inhibition of CYP2C19 in human liver microsomes; type: ADME, Microsome
[21] = target: Cytochrome P450 2E1 (Homo sapiens, UniProt P05181); test: Inhibition of CYP2E1 in human liver microsomes; type: ADME, Microsome
[22] = target: Cytochrome P450 3A4 (Homo sapiens, UniProt P08684); test: Inhibition of CYP3A4 in human liver microsomes; type: ADME, Microsome
[23] = Protein binding in human plasma at 5 uM; type: ADME, cell-free; details: read-out: PPB (converted)
[24] = Protein binding in CD1 mouse plasma at 5 uM; type: ADME, cell-free; details: read-out: PPB (converted)
[25] = Protein binding in Sprague-Dawley rat plasma at 5 uM; type: ADME, cell-free; details: read-out: PPB (converted)

Cytochrome P450 2E1, sequence (P05181 whole entry): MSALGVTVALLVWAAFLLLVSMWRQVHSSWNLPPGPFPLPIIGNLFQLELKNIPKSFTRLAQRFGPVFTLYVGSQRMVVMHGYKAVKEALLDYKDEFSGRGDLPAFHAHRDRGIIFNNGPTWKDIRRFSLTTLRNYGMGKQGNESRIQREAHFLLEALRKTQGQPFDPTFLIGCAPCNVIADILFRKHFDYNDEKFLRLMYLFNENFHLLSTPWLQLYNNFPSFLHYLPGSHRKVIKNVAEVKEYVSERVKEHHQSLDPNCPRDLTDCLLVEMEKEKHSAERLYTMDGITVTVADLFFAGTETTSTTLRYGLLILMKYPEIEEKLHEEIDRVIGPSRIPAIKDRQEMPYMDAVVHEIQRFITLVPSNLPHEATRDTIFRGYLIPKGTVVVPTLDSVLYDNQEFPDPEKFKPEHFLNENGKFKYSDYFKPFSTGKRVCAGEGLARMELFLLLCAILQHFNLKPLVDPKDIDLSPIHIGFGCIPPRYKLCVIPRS
Cytochrome P450 2C19, sequence (P33261 whole entry): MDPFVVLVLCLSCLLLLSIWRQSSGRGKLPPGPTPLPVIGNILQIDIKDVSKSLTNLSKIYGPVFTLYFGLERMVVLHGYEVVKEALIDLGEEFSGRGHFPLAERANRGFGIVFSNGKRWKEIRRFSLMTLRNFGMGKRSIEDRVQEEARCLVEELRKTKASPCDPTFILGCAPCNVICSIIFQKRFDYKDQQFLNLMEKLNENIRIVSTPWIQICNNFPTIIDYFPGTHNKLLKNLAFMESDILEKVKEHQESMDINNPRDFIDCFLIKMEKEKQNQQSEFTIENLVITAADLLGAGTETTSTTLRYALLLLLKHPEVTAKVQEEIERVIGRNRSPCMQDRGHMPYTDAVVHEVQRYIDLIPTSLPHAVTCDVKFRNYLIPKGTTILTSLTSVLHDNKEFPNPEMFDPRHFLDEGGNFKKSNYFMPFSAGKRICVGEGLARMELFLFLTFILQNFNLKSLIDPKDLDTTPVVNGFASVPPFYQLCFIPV
Cytochrome P450 3A4, sequence (P08684 whole entry): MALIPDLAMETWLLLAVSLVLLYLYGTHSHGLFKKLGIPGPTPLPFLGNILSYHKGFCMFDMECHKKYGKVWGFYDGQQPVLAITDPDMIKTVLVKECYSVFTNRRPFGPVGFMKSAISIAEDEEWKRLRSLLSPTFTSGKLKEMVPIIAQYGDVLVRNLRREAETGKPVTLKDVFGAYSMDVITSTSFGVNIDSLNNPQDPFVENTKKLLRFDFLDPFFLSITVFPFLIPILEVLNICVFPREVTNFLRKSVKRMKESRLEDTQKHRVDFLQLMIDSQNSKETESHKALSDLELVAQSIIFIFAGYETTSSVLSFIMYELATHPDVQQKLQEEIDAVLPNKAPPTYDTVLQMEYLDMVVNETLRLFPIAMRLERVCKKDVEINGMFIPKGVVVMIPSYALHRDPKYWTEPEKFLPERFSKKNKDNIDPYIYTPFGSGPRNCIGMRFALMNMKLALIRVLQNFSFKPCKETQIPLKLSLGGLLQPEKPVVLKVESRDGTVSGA
Cytochrome P450 2C9, sequence (P11712 whole entry): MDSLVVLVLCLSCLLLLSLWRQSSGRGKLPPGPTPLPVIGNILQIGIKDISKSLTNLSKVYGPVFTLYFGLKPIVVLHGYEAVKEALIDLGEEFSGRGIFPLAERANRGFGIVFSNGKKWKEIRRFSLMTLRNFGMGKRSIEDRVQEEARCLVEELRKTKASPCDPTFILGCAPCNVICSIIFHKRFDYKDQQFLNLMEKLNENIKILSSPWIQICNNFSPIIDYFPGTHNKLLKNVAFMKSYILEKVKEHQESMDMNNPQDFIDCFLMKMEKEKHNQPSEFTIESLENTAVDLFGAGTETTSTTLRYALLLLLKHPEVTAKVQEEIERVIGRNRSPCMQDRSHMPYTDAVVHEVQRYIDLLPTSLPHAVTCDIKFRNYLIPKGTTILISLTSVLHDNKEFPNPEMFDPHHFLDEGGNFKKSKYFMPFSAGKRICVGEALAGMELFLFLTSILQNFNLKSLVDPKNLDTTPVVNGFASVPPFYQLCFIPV
Cytochrome P450 2D6, sequence (P10635 whole entry): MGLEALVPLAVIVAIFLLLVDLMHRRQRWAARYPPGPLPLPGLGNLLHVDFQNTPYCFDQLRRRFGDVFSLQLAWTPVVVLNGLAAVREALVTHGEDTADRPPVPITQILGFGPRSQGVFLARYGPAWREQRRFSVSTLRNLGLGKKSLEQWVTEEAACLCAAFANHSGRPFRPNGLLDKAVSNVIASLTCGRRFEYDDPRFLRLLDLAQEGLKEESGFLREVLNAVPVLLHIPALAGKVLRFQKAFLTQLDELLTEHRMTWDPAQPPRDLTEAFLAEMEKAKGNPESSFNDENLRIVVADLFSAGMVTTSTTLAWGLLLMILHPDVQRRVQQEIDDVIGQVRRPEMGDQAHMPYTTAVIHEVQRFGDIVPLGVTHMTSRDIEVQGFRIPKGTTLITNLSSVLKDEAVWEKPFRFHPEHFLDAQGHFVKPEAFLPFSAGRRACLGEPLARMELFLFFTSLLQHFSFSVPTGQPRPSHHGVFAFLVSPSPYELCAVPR

Work on `C[C@]1(c2nc3c(C(N)=O)cccc3[nH]2)CCCN1` [VELIPARIB] yielded a Vd [1] of 3.6 L/kg, a clearance [2] of 33.3 mL/min/kg and a bioavailability [3] of 72%. For the same compound, the half-life [4] was 2.7 h, the AUC [5] was 3200 ng·h/mL and the Cmax [6] was 800 ng/mL. The Vd [7] was 2.2 L/kg, the clearance [8] was 10 mL/min/kg and the bioavailability [9] was 56%. The half-life [10] was 1.9 h, the AUC [11] was 1300 ng·h/mL and the Cmax [12] was 300 ng/mL. The Vd [13] was 3.1 L/kg, the clearance [14] was 18.3 mL/min/kg and the solubility [15] was > 5000 µg/mL. For the same compound, the Activity [16] was “Not Active”, the Activity [17] was “Not Active” and the Activity [18] was “Not Active”. For the same compound, the Activity [19] was “Not Active”, the Activity [20] was “Not Active” and the Activity [21] was “Not Active”. For the same compound, the Activity [22] was “Not Active”, the fraction unbound at 5 µM [23] was 0.59 and the fraction unbound at 5 µM [24] was 0.59. It also gave a fraction unbound at 5 µM [25] of 0.59.
